The subject of data set [1] is Plasmodium falciparum. The data set is described as follows: Antiplasmodial activity against chloroquine-sensitive Plasmodium falciparum NF54 by LDH assay. The format is functional, organism-based.
The nature of data set [2]: Selectivity index, ratio of IC50 for CHO cells to IC50 for antileishmanial activity against Leishmania donovani 9515 by resazurin dye based assay. The settings on record: hamster, read-out: Ratio IC50. Format: toxicity. A general note: Alamar Blue is a resazurin reagent that responds to reducing activity.
Data set [3] relates to Leishmania donovani. Description: Antileishmanial activity against Leishmania donovani 1S promastigotes assessed as inhibition of parasite growth incubated for 72 hrs by resazurin dye based assay. Format: functional, organism-based.
For data set [4], the system named is CHO. The data set is described as follows: Cytotoxicity against CHO cells assessed as reduction in cell viability by MTT assay. Format: cell-based. The settings on record: Cricetulus griseus.
Data set [5] can be described thus: in vitro. The settings on record: hamster, CHO cells.
Data set [6] deals with Leishmania donovani. Description: Antileishmanial activity against Leishmania donovani 9515 promastigotes assessed as inhibition of parasite growth incubated for 72 hrs by resazurin dye based assay. The format is functional, organism-based. As to conditions: Leishmania donovani, 9515, 72 h.
The subject of data set [7] is Plasmodium falciparum. Description: Antiplasmodial activity against chloroquine-resistant Plasmodium falciparum Dd2 by LDH assay. Format: functional, organism-based.
Data set [8] deals with Leishmania major. Description: Antileishmanial activity against Leishmania major IR-173 promastigotes assessed as inhibition of parasite growth incubated for 72 hrs by resazurin dye based assay. The settings on record: IR-173, 72 h. Format: functional, organism-based.
Data set [9] can be described thus: Selectivity index, ratio of IC50 for CHO cells to IC50 for antileishmanial activity against Leishmania donovani 1S by resazurin dye based assay. The format is toxicity. The settings on record: hamster, read-out: Ratio IC50.

Our source for the IC50 and selectivity ratio values is ChEMBL document CHEMBL4699524 (Bioorg Med Chem Lett, 2020).

As a reminder, the IC50 is the point on the concentration scale where inhibition reaches its midpoint.

In the case of `C[C@@H]1CC[C@H]2C(C)(COC(=O)c3ccc(F)cc3)O[C@@H]3O[C@@]4(C)CC[C@@H]1[C@]32OO4` (stereo not given in full), the IC50 is 3.7 nM in data set [1]; 10100 nM in [3]; greater than 100000 nM in data set [4]; 8110 nM in data set [6]; 4.4 nM in [7]; 7570 nM in [8]. The selectivity ratio in data set [2] was 10; in data set [5] it was 13; in data set [9] it was greater than 12.

Regarding `C[C@@H]1CC[C@H]2C(C)(COC(=O)c3cc4ccccc4o3)O[C@@H]3O[C@@]4(C)CC[C@@H]1[C@]32OO4` (stereo not given in full), the IC50 in data set [1] is 14.6 nM; in [3] it was 13500 nM; in data set [4], greater than 100000 nM; in data set [6], 10300 nM; in data set [7] it was 7.1 nM; in data set [8] it was 11200 nM. In addition, the figures for the selectivity ratio in data set [2], in data set [5] and in data set [9] were 7, 9 and greater than 10, respectively.

Take `COc1ccc2nc3cc(Cl)ccc3c(NCCN)c2c1`: the IC50 in [1] came out at 13.9 nM; in data set [3] it was 2260 nM; in data set [4] it was 1000 nM; in data set [6], 2810 nM; in data set [7], 80.7 nM; in [8], 2070 nM. Further, the selectivity ratio in [2] is 0.4; in [5], 0.5; in [9], 0.4.

As for `COc1ccc2nc3cc(Cl)ccc3c(NCCCN(C)CCO[C@H]3O[C@@H]4O[C@@]5(C)CC[C@H]6[C@H](C)CC[C@@H]([C@H]3C)[C@@]46OO5)c2c1`, the IC50 in data set [1] was found to be 12.2 nM; in data set [3] it was 370 nM; in [4], 1200 nM; in data set [6] it was 170 nM; in [7] it was 38.5 nM; in data set [8] it was 230 nM. Besides, the values for the selectivity ratio in data set [2], in data set [5] and in data set [9] were 3, 5 and 7, respectively.

Take `CCCCCC(=O)OCC1(C)O[C@@H]2O[C@@]3(C)CC[C@H]4[C@H](C)CC[C@@H]1[C@@]24OO3` (stereo not given in full): the IC50 is 60.1 nM in [1]; 25500 nM in data set [3]; greater than 100000 nM in data set [4]; 23000 nM in data set [6]; 43.2 nM in [7]; 13900 nM in data set [8]. Further, the selectivity ratio in data set [2] was 4; in data set [5], 7; in data set [9] it was greater than 4.

As to `C[C@@H]1CC[C@H]2C(C)(COC(=O)c3ccc([N+](=O)[O-])cc3)O[C@@H]3O[C@@]4(C)CC[C@@H]1[C@]32OO4` (stereo not given in full), the IC50 is 6.7 nM in data set [1]; 5150 nM in data set [3]; greater than 100000 nM in [4]; 4260 nM in data set [6]; 2.6 nM in [7]; 5710 nM in data set [8]. Also, the selectivity ratio in [2] was 19; in data set [5] it was 18; in data set [9], greater than 24.

On to `C[C@H]1[C@@H](O)O[C@@H]2O[C@@]3(C)CC[C@H]4[C@H](C)CC[C@@H]1[C@@]24OO3` [ARTENIMOL], for which the IC50 in data set [1] is 2.2 nM; in data set [3] it was 27000 nM; in data set [4] it was greater than 100000 nM; in [6] it was 31200 nM; in data set [7] it was 1.2 nM; in [8] it was 42600 nM. Besides, the selectivity ratio in data set [2] came out at 4; in [5] it was 2; in [9] it was 3.

For `COc1ccc2nc3cc(Cl)ccc3c(NCCNCCO[C@H]3O[C@@H]4O[C@@]5(C)CC[C@H]6[C@H](C)CC[C@@H]([C@H]3C)[C@@]46OO5)c2c1`, the IC50 was determined as 2.6 nM in data set [1]; 380 nM in [3]; 1600 nM in [4]; 320 nM in data set [6]; 35.3 nM in data set [7]; 290 nM in data set [8]. For the same compound, the selectivity ratio came out at 4 in data set [2], 6 in data set [5] and 5 in data set [9].

Take `COc1ccc2nc3cc(Cl)ccc3c(N3CCN(CCO[C@H]4O[C@@H]5O[C@@]6(C)CC[C@H]7[C@H](C)CC[C@@H]([C@H]4C)[C@@]57OO6)CC3)c2c1`: the IC50 in data set [1] is 267 nM; in data set [3] it was 54100 nM; in data set [4], greater than 100000 nM; in [6], 32100 nM; in data set [7] it was 430 nM; in data set [8], 4800 nM. The results for the selectivity ratio in data set [2], in data set [5] and in data set [9] were 3, 33 and 5, respectively.

For the compound `C[C@@H]1CC[C@H]2C(C)(COC(=O)c3ccco3)O[C@@H]3O[C@@]4(C)CC[C@@H]1[C@]32OO4` (stereo not given in full), the IC50 is 9.2 nM in data set [1]; greater than 100000 nM in [3]; greater than 100000 nM in data set [4]; greater than 100000 nM in data set [6]; 3.1 nM in data set [7]; greater than 100000 nM in data set [8]. For the same compound, the selectivity ratio in data set [2] and in data set [5] was 1 each time.

Consider `C[C@@H]1CC[C@H]2C(C)(COC(=O)[C@H]3CCCN3C(=O)C(F)(F)F)O[C@@H]3O[C@@]4(C)CC[C@@H]1[C@]32OO4` (stereo not given in full), for which the IC50 is 7.9 nM in data set [1]; 9290 nM in data set [3]; greater than 100000 nM in data set [4]; 37600 nM in [6]; 7.8 nM in data set [7]; 15600 nM in data set [8]. The selectivity ratio in data set [2] turned out to be 11; in data set [5], 4; in data set [9] it was 3.

In the case of `C[C@H]1[C@H](OC(=O)CCC(=O)O)O[C@@H]2O[C@@]3(C)CC[C@H]4[C@H](C)CC[C@@H]1[C@@]24OO3` [SODIUM ARESUNATE], the IC50 in data set [1] was 8 nM; in [3], 63100 nM; in data set [4], greater than 100000 nM; in data set [6], 80200 nM; in data set [8], 61200 nM. Also, the selectivity ratio in data set [2] is 1.6; in data set [5], 1.6; in data set [9], 1.

For `COc1ccc2nc3cc(Cl)ccc3c(N3CCN(CCO[C@H]4O[C@@H]5O[C@@]6(C)CC[C@H]7[C@H](C)CC[C@@H]([C@H]4C)[C@@]57OO6)C(C)C3)c2c1` (stereo not given in full), the IC50 in data set [1] is 17 nM; in data set [3], 2380 nM; in data set [4] it was 6000 nM; in data set [6], 1590 nM; in [7] it was 41.3 nM; in data set [8] it was 690 nM. The selectivity ratio is 5 in data set [2], 9 in data set [5] and 4 in data set [9].

As for `C[C@@H]1CC[C@H]2C(C)(COC(=O)CCc3ccccc3)O[C@@H]3O[C@@]4(C)CC[C@@H]1[C@]32OO4` (stereo not given in full), the IC50 in [1] was 7.4 nM; in data set [3] it was 24400 nM; in data set [4], greater than 100000 nM; in data set [6], 24600 nM; in data set [7] it was 11.5 nM; in data set [8], 6360 nM. The selectivity ratio in data set [2] was 4; in data set [5], 16; in data set [9] it was greater than 4.

As to `C[C@@H]1CC[C@H]2C(C)(CO)O[C@@H]3O[C@@]4(C)CC[C@@H]1[C@]32OO4` (stereo not given in full), the half-maximal inhibitory concentration (IC50) in data set [1] is 4.1 nM; in [3], greater than 100000 nM; in data set [4] it was greater than 100000 nM; in data set [6], greater than 100000 nM; in [7] it was 7.4 nM; in data set [8], greater than 100000 nM. Besides, the selectivity ratio in data set [2] and in [5] was 1 throughout.

`CC[C@H]1CN2CCc3cc(OC)c(OC)cc3[C@@H]2C[C@@H]1C[C@H]1NCCc2cc(OC)c(OC)cc21` [EMETINE]: the IC50 in data set [4] is 290 nM.

Regarding `CO[C@H]1O[C@@H]2O[C@@]3(C)CC[C@H]4[C@H](C)CC[C@@H]([C@H]1C)[C@@]24OO3`, the selectivity ratio worked out at 2 in data set [2], 4 in [5] and 1 in data set [9]. Further, the IC50 in [3] was 42300 nM; in [4] it was greater than 100000 nM; in data set [6] it was 90900 nM; in data set [8] it was 22500 nM.

Consider `CC(=O)OCC1(C)O[C@@H]2O[C@@]3(C)CC[C@H]4[C@H](C)CC[C@@H]1[C@@]24OO3` (stereo not given in full), for which the IC50 is 11.2 nM in [1]; 85200 nM in data set [3]; greater than 100000 nM in [4]; greater than 100000 nM in data set [6]; 12.6 nM in data set [7]; 42100 nM in data set [8]. Moreover, the selectivity ratio was found to be 1 in [2] and 2 in data set [5].

Turning to `COc1ccc2nc3cc(Cl)ccc3c(N3CCNCC3)c2c1`, the IC50 turned out to be 1490 nM in data set [1]; 3260 nM in [3]; 3400 nM in [4]; 3210 nM in [6]; 1670 nM in [7]; 3520 nM in data set [8]. Besides, the selectivity ratio in data set [2] was 1; in data set [5], 1; in data set [9] it was 1.1.

In the case of `CNCCCNc1c2ccc(Cl)cc2nc2ccc(OC)cc12`, the concentration for half-maximal inhibition (IC50) is 9.1 nM in [1]; 3700 nM in data set [3]; 500 nM in data set [4]; 3330 nM in data set [6]; 117 nM in data set [7]; 1430 nM in data set [8]. Moreover, the selectivity ratio in data set [2] turned out to be 0.1; in data set [5] it was 0.4; in [9], 0.2.

Take `COc1ccc2nc3cc(Cl)ccc3c(N3CCNC(C)C3)c2c1` (stereo not given): the IC50 in data set [1] was found to be 158 nM; in [3], 4160 nM; in data set [4], 5600 nM; in data set [6], 3540 nM; in data set [7], 384 nM; in data set [8] it was 3470 nM. The selectivity ratio stood at 1.4 in data set [2], 1.6 in data set [5] and 1.6 in data set [9].
